Experimental data as given in patent US5444174A, “16-membered macrolide derivative having sustained antibacterial activity in plasma, synthesis intermediate thereof and process for producing the same” (Meiji Seika Kaisha, Ltd., priority 1992, dated 1995).
≈ marks a conversion by molar mass, not a printed value. Like-named read-outs stand apart in the source and are kept apart here.

Tests used:
Format in all cases: cell-based
B. catarrhalis W-0500 = assay: Antibacterial activity (MIC), agar plate dilution method; details: Moraxella catarrhalis, read-out: Antibacterial activity (MIC)
Protocol: (§1) Antibacterial activities of the compounds of formula (I) are shown in Table 1 in terms of minimum inhibitory concentration (MIC).
(§2) Minimum inhibitory concentration was determined by the agar plate dilution method. Test strains were subjected to seed culture using Sensitivity test broth (STB, Nissui Pharmaceutical) except that the strains belonging to the genus Streptococcus, Branhamella and Haemophilus were cultured on blood agar plate. A 5 μl portion of cell suspension of the test strains having about 10^6 CFU/ml was inoculated into Sensitivity disk agar (SDA, Nissui Pharmaceutical) supplemented with 5% horse blood and incubated at 37° C. for 20 hours. Then, MIC was measured.

B. catarrhalis W-0506 = assay: as above; details: Moraxella catarrhalis, read-out: Antibacterial activity (MIC)
Protocol: as §1, §2

E. coli NIHJ JC-2 = assay: as above; details: Escherichia coli, NIHJJC2, 37° C., 20 hours
Protocol: as §1, §2

Ent. faecalis W-73 = assay: as above; details: Enterococcus faecalis, W73, 37° C., 20 hours
Protocol: as §1, §2

K. pneumoniae PC1602 = assay: as above; details: Klebsiella pneumoniae, 37° C., 20 hours
Protocol: as §1, §2

M. luteus ATCC 9341 = assay: as above; details: Micrococcus luteus, ATCC9341, 37° C., 20 hours
Protocol: as §1, §2

S. Pyogenes Cook = assay: as above; details: Streptococcus pyogenes, 37° C., 20 hours, blood agar seed culture
Protocol: as §1, §2

S. pneumoniae IP692 = assay: as above; details: Streptococcus pneumoniae, 37° C., 20 hours, blood agar seed culture
Protocol: as §1, §2

S. pneumoniae Type 1 = assay: as above; details: Streptococcus pneumoniae, TYPE1, 37° C., 20 hours, blood agar seed culture
Protocol: as §1, §2

Sta. aureus 209P JC-1 = assay: as above; details: Staphylococcus aureus, 37° C., 20 hours
Protocol: as §1, §2

Sta. aureus M126 = assay: as above; details: Staphylococcus aureus, 37° C., 20 hours
Protocol: as §1, §2

Sta. aureus M133 = assay: as above; details: Staphylococcus aureus, read-out: Antibacterial activity (MIC)
Protocol: as §1, §2

[1] = tested on: Sta. aureus MS15009/pMS98; assay: as above; details: Staphylococcus aureus, MS15009/PMS98, 20 h, read-out: Antibacterial activity (MIC)
Protocol: as §1, §2

[2] = tested on: Sta. aureus MS15009/pMS99; assay: as above; details: Staphylococcus aureus, MS15009/PMS99, 20 h, read-out: Antibacterial activity (MIC)
Protocol: as §1, §2

Sta. aureus MS15026 = assay: as above; details: Staphylococcus aureus, 37° C., 20 hours
Protocol: as §1, §2

Sta. aureus MS15027 = assay: as above; details: Staphylococcus aureus, read-out: Antibacterial activity (MIC)
Protocol: as §1, §2

[3] = tested on: Sta. epidermidis ATCC 14990; assay: as above; details: Staphylococcus epidermidis, read-out: Antibacterial activity (MIC)
Protocol: as §1, §2

H. influenza 9334 = assay: as above; details: 37° C., 20 hours, blood agar seed culture
Protocol: as §1, §2

gram-positive bacteria = assay: Antibacterial activities against gram-positive bacteria (summary of Table 1); details: in words, vs miokamycin
Protocol: as §1, §2

[4] = W0506, 37° C., 20 hours, blood agar seed culture, B. catarrhalis W-0506
[5] = ATCC14990, 37° C., 20 hours, Sta. epidermidis ATCC 14990
[6] = W0500, 37° C., 20 hours, blood agar seed culture, B. catarrhalis W-0500
[7] = 37° C., 20 hours, Sta. aureus M133
[8] = 37° C., 20 hours, Sta. aureus MS15027

Compound	MIC (B. catarrhalis W-0500; W0500, 20 h) [µg/mL]	MIC (B. catarrhalis W-0506; [4]) [µg/mL]	MIC (E. coli NIHJ JC-2) [µg/mL]	MIC (Ent. faecalis W-73) [µg/mL]	MIC (K. pneumoniae PC1602) [µg/mL]	MIC (M. luteus ATCC 9341) [µg/mL]	MIC (S. Pyogenes Cook) [µg/mL]	MIC (S. pneumoniae IP692) [µg/mL]	MIC (S. pneumoniae Type 1) [µg/mL]	MIC (Sta. aureus 209P JC-1) [µg/mL]	MIC (Sta. aureus M126) [µg/mL]	MIC (Sta. aureus M133; M133, 20 h) [µg/mL]	MIC [1] [µg/mL]	MIC [2] [µg/mL]	MIC (Sta. aureus MS15026) [µg/mL]	MIC [3, 5] [µg/mL]	MIC (B. catarrhalis W-0500; [6]) [µg/mL]	MIC (H. influenza 9334) [µg/mL]	MIC (Sta. aureus M133; [7]) [µg/mL]	MIC (Sta. aureus MS15027; [8]) [µg/mL]	other results
C=CCO[C@H]1[C@H](C)O[C@@H](O[C@H]2[C@H](N(C)C)[C@@H](O)[C@H](O[C@H]3[C@@H](CC=O)C[C@@H](C)C(=O)/C=C/C=C/C[C@@H](C)OC(=O)C[C@@H](OC(=O)CC)[C@@H]3OC)O[C@@H]2C)C[C@@]1(C)OC [Compound (39)]	12.5 (≈ 15.4 µM)	6.25 (≈ 7.72 µM)	> 100	6.25 (≈ 7.72 µM)	> 100	0.39 (≈ 0.481 µM)	1.56 (≈ 1.93 µM)	1.56 (≈ 1.93 µM)	1.56 (≈ 1.93 µM)	3.13 (≈ 3.86 µM)	> 100	12.5 (≈ 15.4 µM)	12.5 (≈ 15.4 µM)	> 100	> 100	25 (≈ 30.9 µM)					MIC (Sta. aureus MS15027; MS15027, 20 h): 12.5 µg/mL (≈ 15.4 µM)
CCC(=O)O[C@@H]1CC(=O)O[C@H](C)C/C=C/C=C/C(=O)[C@H](C)C[C@H](CC=O)[C@H](O[C@@H]2O[C@H](C)[C@@H](O[C@H]3C[C@@](C)(OC)[C@@H](OCC=C(C)C)[C@H](C)O3)[C@H](N(C)C)[C@H]2O)[C@H]1OC [Compound (40)]		1.56 (≈ 1.86 µM)	> 100	3.13 (≈ 3.73 µM)	> 100	0.1 (≈ 0.119 µM)	0.2 (≈ 0.239 µM)	0.39 (≈ 0.465 µM)	0.39 (≈ 0.465 µM)	0.78 (≈ 0.931 µM)	> 100		0.78 (≈ 0.931 µM)	> 100	> 100	3.13 (≈ 3.73 µM)	1.56 (≈ 1.86 µM)	12.5 (≈ 14.9 µM)	1.56 (≈ 1.86 µM)	1.56 (≈ 1.86 µM)	
CCCCO[C@H]1[C@H](C)O[C@@H](O[C@H]2[C@H](N(C)C)[C@@H](O)[C@H](O[C@H]3[C@@H](CC=O)C[C@@H](C)C(=O)/C=C/C=C/C[C@@H](C)OC(=O)C[C@@H](OC(=O)CC)[C@@H]3OC)O[C@@H]2C)C[C@@]1(C)OC [Compound (41)]		0.78 (≈ 0.944 µM)	> 100	3.13 (≈ 3.79 µM)	> 100	0.05 (≈ 0.0605 µM)	0.1 (≈ 0.121 µM)	0.1 (≈ 0.121 µM)	0.2 (≈ 0.242 µM)	0.2 (≈ 0.242 µM)	> 100		0.39 (≈ 0.472 µM)	> 100	> 100	1.56 (≈ 1.89 µM)	0.78 (≈ 0.944 µM)	6.25 (≈ 7.57 µM)	0.78 (≈ 0.944 µM)	0.78 (≈ 0.944 µM)	antibacterial activities compared with miokamycin (gram-positive bacteria): excellent antibacterial activities exceeding that of miokamycin
CCCCCCO[C@H]1[C@H](C)O[C@@H](O[C@H]2[C@H](N(C)C)[C@@H](O)[C@H](O[C@H]3[C@@H](CC=O)C[C@@H](C)C(=O)/C=C/C=C/C[C@@H](C)OC(=O)C[C@@H](OC(=O)CC)[C@@H]3OC)O[C@@H]2C)C[C@@]1(C)OC [Compound (42)]	1.56 (≈ 1.83 µM)		> 100	6.25 (≈ 7.32 µM)	> 100	0.1 (≈ 0.117 µM)	0.2 (≈ 0.234 µM)	0.2 (≈ 0.234 µM)	0.2 (≈ 0.234 µM)	0.78 (≈ 0.913 µM)	> 100	1.56 (≈ 1.83 µM)	1.56 (≈ 1.83 µM)	> 100	> 100			12.5 (≈ 14.6 µM)			MIC (B. catarrhalis W-0506; W0506, 20 h): 1.56 µg/mL (≈ 1.83 µM); MIC (Sta. aureus MS15027; MS15027, 20 h): 1.56 µg/mL (≈ 1.83 µM); MIC ([3]; ATCC14990, 20 h): 1.56 µg/mL (≈ 1.83 µM)
CCC(=O)O[C@@H]1CC(=O)O[C@H](C)C/C=C/C=C/C(=O)[C@H](C)C[C@H](CC=O)[C@H](O[C@@H]2O[C@H](C)[C@@H](O[C@H]3C[C@@](C)(OC)[C@@H](OCCCC(C)C)[C@H](C)O3)[C@H](N(C)C)[C@H]2O)[C@H]1OC [Compound (43)]		1.56 (≈ 1.83 µM)	> 100	3.13 (≈ 3.66 µM)	> 100	0.05 (≈ 0.0585 µM)	0.05 (≈ 0.0585 µM)	0.2 (≈ 0.234 µM)	0.2 (≈ 0.234 µM)	0.39 (≈ 0.457 µM)	> 100		0.78 (≈ 0.913 µM)	> 100	> 100	1.56 (≈ 1.83 µM)	1.56 (≈ 1.83 µM)	12.5 (≈ 14.6 µM)	1.56 (≈ 1.83 µM)	1.56 (≈ 1.83 µM)	
CCC(=O)O[C@@H]1CC(=O)O[C@H](C)C/C=C/C=C/C(=O)[C@H](C)C[C@H](CC=O)[C@H](O[C@@H]2O[C@H](C)[C@@H](O[C@H]3C[C@@](C)(OC)[C@@H](OCc4ccccc4)[C@H](C)O3)[C@H](N(C)C)[C@H]2O)[C@H]1OC [Compound (44)]		1.56 (≈ 1.81 µM)	> 100	1.56 (≈ 1.81 µM)	> 100	0.1 (≈ 0.116 µM)	0.2 (≈ 0.233 µM)	0.2 (≈ 0.233 µM)	0.2 (≈ 0.233 µM)	0.2 (≈ 0.233 µM)	> 100		0.78 (≈ 0.907 µM)	> 100	> 100	3.13 (≈ 3.64 µM)	1.56 (≈ 1.81 µM)	6.25 (≈ 7.27 µM)	1.56 (≈ 1.81 µM)	1.56 (≈ 1.81 µM)	
